Reference: US7166456B2, “Microorganism for producing riboflavin and method for producing riboflavin using the same” (CJ Corp., priority 2002, dated 2007)

Tests used:
Bacillus subtilis AS5 = test: Evaluation of resistance against thiaproline (growth on thiaproline-containing minimal medium); type: cell-based; parameters: key to growth of strain: +: growth; −: not growth; settings: 37° C., 5 days
Method: (§1) The Bacillus subtilis AS5 as the parent strain was obtained from BIONOM-S, Ltd. (Obolensk, Moscow, Russia). The Bacillus subtilis AS5 was suspended in phosphate buffer at pH 7.0 or citrate buffer at pH 5.5 to have a cell density of 10^7 to 10^8 cells/ml. A mutation-inducing agent, N-methyl-N′-nitro-N-nitrosoguanidine was added to the suspension until its concentration was 10 to 50 μg/ml. The resultant mixture was incubated at room temperature or 30° C. for 30 to 60 minutes to induce mutation. Then, the mixture was washed three times with 0.85% of saline solution and diluted in an appropriate manner. The diluted solution was plated onto 1.8% agar-containing minimal media with various concentrations of thiaproline and cultured at 37° C. for 5 days to obtain colonies. In this case, the concentration of thiaproline ranged from 0 mg/l to 100 mg/l. The formed colonies were inoculated onto nutrient agar media and cultured at 37° C. for 24 hours. Then, the resultant nutrient cultures were inoculated onto fermentation media and cultured at 37° C. for 4 to 5 days. The highest riboflavin-producing strain was selected.
In this example, in order to evaluate resistance to thiaproline, the Bacillus subtilis CJKB0001 (KCCM-10445) of Example 1 and the Bacillus subtilis AS5 as the parent strain were cultured in various concentrations of thiaproline-containing media. In detail, respective strains were inoculated onto thiaproline-containing media as shown in Table 1 and cultured at 37° C. for 5 days. In this case, the concentration of thiaproline ranged from 0 to 100 mg/l.

[1] = tested on: Bacillus subtilis CJKB0001 (KCCM-10445); test: as above; type: cell-based; parameters: key: +: growth; −: not growth; settings: 37° C., 5 days
Method: as §1
In this example, in order to evaluate resistance to thiaproline, the Bacillus subtilis CJKB0001 (KCCM-10445) of Example 1 and the Bacillus subtilis AS5 as the parent strain were cultured in various concentrations of thiaproline-containing media. […]

Structure (SMILES): O=C(O)[C@@H]1CSCN1 [thiaproline]
- growth of strain (Bacillus subtilis AS5; 40 mg/l thiaproline): +
- growth of strain (Bacillus subtilis AS5; 50 mg/l thiaproline): −
- growth of strain (Bacillus subtilis AS5; 70 mg/l thiaproline): −
- growth of strain (Bacillus subtilis AS5; 100 mg/l thiaproline): −
- thiaproline concentration at which the strain cannot grow (Bacillus subtilis AS5; thiaproline-containing medium): more than 40 mg/l
- growth of strain ([1]; 70 mg/l thiaproline): +
- growth of strain ([1]; 100 mg/l thiaproline): −
